How the values were obtained:
Type in all cases: in vivo
[1] = system: velvetleaf (Abutilon theophrasti, ABUTH); test: Post-emerge test, greenhouse herbicide activity screening; conditions: post-emerge, phytotoxicity rating 0-100 at 14 days after application
Summary of the method: (§1)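 Compounds in acetone were track-sprayed at 15-1000 g ai/ha (187 l/ha) on sandy loam pots: pre-emerge one day after seeding, post-emerge at 2-3 leaf stage with 0.25% v/v non-ionic surfactant. Phytotoxicity was rated 14 days later on a 0 (no damage) to 100 (complete death) scale.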

[2] = system: green foxtail (Setaria viridis, SETVI); test: as above; conditions: post-emerge, phytotoxicity rating 0-100 at 14 days after application
Summary of the method: as §1

[3] = system: redroot pigweed (Amaranthus retroflexus, AMARE); test: as above; conditions: post-emerge, phytotoxicity rating 0-100 at 14 days after application
Summary of the method: as §1

[4] = system: barnyardgrass (Echinochloa crus-galli, ECHCG); test: as above; conditions: post-emerge, phytotoxicity rating 0-100 at 14 days after application
Summary of the method: as §1

[5] = system: lambsquarters (Chenopodium album, CHEAL); test: as above; conditions: post-emerge, phytotoxicity rating 0-100 at 14 days after application
Summary of the method: as §1

[6] = system: large crabgrass (Digitaria sanguinalis, DIGSA); test: as above; conditions: post-emerge, phytotoxicity rating 0-100 at 14 days after application
Summary of the method: as §1

[7] = system: sicklepod (Cassia obtusifolia, CASOB); test: as above; conditions: post-emerge, phytotoxicity rating 0-100 at 14 days after application
Summary of the method: as §1

[8] = system: johnsongrass (Sorghum halepense, SORHA); test: as above; conditions: post-emerge, phytotoxicity rating 0-100 at 14 days after application
Summary of the method: as §1

[9] = system: ivyleaf morningglory (Ipomoea hederacea, IPOHE); test: as above; conditions: post-emerge, phytotoxicity rating 0-100 at 14 days after application
Summary of the method: as §1

[10] = system: velvetleaf (Abutilon theophrasti, ABUTH); test: Pre-emerge test, greenhouse herbicide activity screening; conditions: pre-emerge, phytotoxicity rating 0-100 at 14 days after application
Summary of the method: (§2)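 Fourteen days after spraying, crop and weed injury was graded visually from 0, no effect, to 100, every plant dead. Test substances were dissolved in acetone and applied at 15–1000 g ai/ha with a flat-fan nozzle. Application was either pre-emergence, one day after sowing, or post-emergence at the 2–3 leaf stage.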

[11] = system: green foxtail (Setaria viridis, SETVI); test: as above; conditions: pre-emerge, phytotoxicity rating 0-100 at 14 days after application
Summary of the method: as §2

[12] = system: barnyardgrass (Echinochloa crus-galli, ECHCG); test: as above; conditions: pre-emerge, phytotoxicity rating 0-100 at 14 days after application
Summary of the method: as §2

[13] = system: lambsquarters (Chenopodium album, CHEAL); test: as above; conditions: pre-emerge, phytotoxicity rating 0-100 at 14 days after application
Summary of the method: as §2

[14] = system: large crabgrass (Digitaria sanguinalis, DIGSA); test: as above; conditions: pre-emerge, phytotoxicity rating 0-100 at 14 days after application
Summary of the method: as §2

[15] = system: sicklepod (Cassia obtusifolia, CASOB); test: as above; conditions: pre-emerge, phytotoxicity rating 0-100 at 14 days after application
Summary of the method: as §2

[16] = system: johnsongrass (Sorghum halepense, SORHA); test: as above; conditions: pre-emerge, phytotoxicity rating 0-100 at 14 days after application
Summary of the method: as §2

[17] = system: ivyleaf morningglory (Ipomoea hederacea, IPOHE); test: as above; conditions: pre-emerge, phytotoxicity rating 0-100 at 14 days after application
Summary of the method: as §2

[18] = system: redroot pigweed (Amaranthus retroflexus, AMARE); test: as above; conditions: pre-emerge, phytotoxicity rating 0-100 at 14 days after application
Summary of the method: (§3)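 Sandy loam pots; pre-emerge: sown 1 d pre-spray, surface-watered after, then bottom-watered. Post-emerge: sown 8–21 d before, 2–3 leaf stage, + 0.25% v/v NIS, bottom-watered. Acetone, 187 l/ha track spray, 15–1000 g ai/ha. 0–100 injury score, day 14.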

[19] = system: field corn (Zea mays L., var. Dekalb 535, CORN); test: Post-emerge test, crop safety; conditions: post-emerge, crop damage rating 0-100 at 14 days after application
Summary of the method: as §2

[20] = system: upland rice (Oryza sp., var. Tebonnet, RICE); test: Post-emerge test, crop safety; conditions: post-emerge, crop damage rating 0-100 at 14 days after application
Summary of the method: as §2

[21] = system: field corn (Zea mays L., var. Dekalb 535, CORN); test: Pre-emerge test, crop safety; conditions: crop damage, pre-emerge, phytotoxicity rating 0-100 at 14 days after application
Summary of the method: as §3

[22] = system: upland rice (Oryza sp., var. Tebonnet, RICE); test: Pre-emerge test, crop safety; conditions: crop damage, pre-emerge, phytotoxicity rating 0-100 at 14 days after application
Summary of the method: as §3

COc1cccc(OC)c1OC(=O)Nc1c(C)c(Cl)cc(F)c1-n1c(=O)cc(C(F)(F)F)n(C)c1=O [4-59]
95: Pre-emerge Herbicidal Activity SORHA ([16]; rate 250 g ai/ha) | Pre-emerge Herbicidal Activity IPOHE ([17]; rate 63 g ai/ha)
70: Pre-emerge Herbicidal Activity RICE ([22]; rate 250 g ai/ha)
20: Post-emerge Herbicidal Activity ECHCG ([4]; 250 g ai/ha) | Post-emerge Herbicidal Activity DIGSA ([6]; 250 g ai/ha) | Pre-emerge Herbicidal Activity CASOB ([15]; rate 63 g ai/ha)
5: Post-emerge Herbicidal Activity CORN ([19]; 63 g ai/ha) | Pre-emerge Herbicidal Activity CORN ([21]; rate 63 g ai/ha)
30: Post-emerge Herbicidal Activity SETVI ([2]; 250 g ai/ha) | Post-emerge Herbicidal Activity CASOB ([7]; 63 g ai/ha) | Post-emerge Herbicidal Activity SORHA ([8]; 250 g ai/ha) | Pre-emerge Herbicidal Activity SETVI ([11]; rate 63 g ai/ha)
25: Post-emerge Herbicidal Activity CORN ([19]; 250 g ai/ha)
40: Pre-emerge Herbicidal Activity DIGSA ([14]; rate 63 g ai/ha) | Pre-emerge Herbicidal Activity SORHA ([16]; rate 63 g ai/ha)
90: Post-emerge Herbicidal Activity AMARE ([3]; 63 g ai/ha) | Pre-emerge Herbicidal Activity SETVI ([11]; rate 250 g ai/ha) | Pre-emerge Herbicidal Activity ECHCG ([12]; rate 250 g ai/ha) | Pre-emerge Herbicidal Activity CASOB ([15]; rate 250 g ai/ha)
0: Post-emerge Herbicidal Activity SETVI ([2]; 63 g ai/ha) | Post-emerge Herbicidal Activity ECHCG ([4]; 63 g ai/ha) | Post-emerge Herbicidal Activity DIGSA ([6]; 63 g ai/ha) | Post-emerge Herbicidal Activity SORHA ([8]; 63 g ai/ha) | Pre-emerge Herbicidal Activity RICE ([22]; rate 63 g ai/ha)
50: Post-emerge Herbicidal Activity RICE ([20]; 63 g ai/ha)
10: Pre-emerge Herbicidal Activity ECHCG ([12]; rate 63 g ai/ha)
80: Pre-emerge Herbicidal Activity CORN ([21]; rate 250 g ai/ha)
60: Post-emerge Herbicidal Activity CASOB ([7]; 250 g ai/ha) | Post-emerge Herbicidal Activity RICE ([20]; 250 g ai/ha)
100: Post-emerge Herbicidal Activity ABUTH ([1]; 63 g ai/ha) | Post-emerge Herbicidal Activity ABUTH ([1]; 250 g ai/ha) | Post-emerge Herbicidal Activity AMARE ([3]; 250 g ai/ha) | Post-emerge Herbicidal Activity CHEAL ([5]; 63 g ai/ha) | Post-emerge Herbicidal Activity CHEAL ([5]; 250 g ai/ha) | Post-emerge Herbicidal Activity IPOHE ([9]; 63 g ai/ha) | Post-emerge Herbicidal Activity IPOHE ([9]; 250 g ai/ha) | Pre-emerge Herbicidal Activity ABUTH ([10]; rate 63 g ai/ha) | Pre-emerge Herbicidal Activity ABUTH ([10]; rate 250 g ai/ha) | Pre-emerge Herbicidal Activity CHEAL ([13]; rate 63 g ai/ha) | Pre-emerge Herbicidal Activity CHEAL ([13]; rate 250 g ai/ha) | Pre-emerge Herbicidal Activity DIGSA ([14]; rate 250 g ai/ha) | Pre-emerge Herbicidal Activity IPOHE ([17]; rate 250 g ai/ha) | Pre-emerge Herbicidal Activity AMARE ([18]; rate 63 g ai/ha) | Pre-emerge Herbicidal Activity AMARE ([18]; rate 250 g ai/ha)

Cc1ccc(COC(=O)Nc2c(C)c(Cl)cc(F)c2-n2c(=O)cc(C(F)(F)F)n(C)c2=O)cc1 [4-60]
30: Pre-emerge Herbicidal Activity SORHA ([16]; rate 63 g ai/ha) | Pre-emerge Herbicidal Activity CORN ([21]; rate 250 g ai/ha)
100: Post-emerge Herbicidal Activity ABUTH ([1]; 63 g ai/ha) | Post-emerge Herbicidal Activity ABUTH ([1]; 250 g ai/ha) | Post-emerge Herbicidal Activity AMARE ([3]; 63 g ai/ha) | Post-emerge Herbicidal Activity AMARE ([3]; 250 g ai/ha) | Post-emerge Herbicidal Activity CHEAL ([5]; 63 g ai/ha) | Post-emerge Herbicidal Activity CHEAL ([5]; 250 g ai/ha) | Post-emerge Herbicidal Activity CASOB ([7]; 250 g ai/ha) | Post-emerge Herbicidal Activity IPOHE ([9]; 63 g ai/ha) | Post-emerge Herbicidal Activity IPOHE ([9]; 250 g ai/ha) | Pre-emerge Herbicidal Activity ABUTH ([10]; rate 63 g ai/ha) | Pre-emerge Herbicidal Activity ABUTH ([10]; rate 250 g ai/ha) | Pre-emerge Herbicidal Activity SETVI ([11]; rate 250 g ai/ha) | Pre-emerge Herbicidal Activity CHEAL ([13]; rate 63 g ai/ha) | Pre-emerge Herbicidal Activity CHEAL ([13]; rate 250 g ai/ha) | Pre-emerge Herbicidal Activity DIGSA ([14]; rate 63 g ai/ha) | Pre-emerge Herbicidal Activity DIGSA ([14]; rate 250 g ai/ha) | Pre-emerge Herbicidal Activity CASOB ([15]; rate 250 g ai/ha) | Pre-emerge Herbicidal Activity IPOHE ([17]; rate 250 g ai/ha) | Pre-emerge Herbicidal Activity AMARE ([18]; rate 63 g ai/ha) | Pre-emerge Herbicidal Activity AMARE ([18]; rate 250 g ai/ha)
50: Post-emerge Herbicidal Activity ECHCG ([4]; 250 g ai/ha) | Post-emerge Herbicidal Activity SORHA ([8]; 63 g ai/ha) | Post-emerge Herbicidal Activity SORHA ([8]; 250 g ai/ha) | Pre-emerge Herbicidal Activity SORHA ([16]; rate 250 g ai/ha) | Pre-emerge Herbicidal Activity IPOHE ([17]; rate 63 g ai/ha) | Post-emerge Herbicidal Activity RICE ([20]; 63 g ai/ha)
65: Post-emerge Herbicidal Activity SETVI ([2]; 63 g ai/ha)
55: Post-emerge Herbicidal Activity CORN ([19]; 250 g ai/ha)
25: Post-emerge Herbicidal Activity CORN ([19]; 63 g ai/ha)
90: Post-emerge Herbicidal Activity SETVI ([2]; 250 g ai/ha) | Pre-emerge Herbicidal Activity SETVI ([11]; rate 63 g ai/ha) | Pre-emerge Herbicidal Activity CASOB ([15]; rate 63 g ai/ha)
40: Post-emerge Herbicidal Activity DIGSA ([6]; 63 g ai/ha) | Pre-emerge Herbicidal Activity ECHCG ([12]; rate 63 g ai/ha)
0: Pre-emerge Herbicidal Activity CORN ([21]; rate 63 g ai/ha)
70: Pre-emerge Herbicidal Activity ECHCG ([12]; rate 250 g ai/ha) | Post-emerge Herbicidal Activity RICE ([20]; 250 g ai/ha) | Pre-emerge Herbicidal Activity RICE ([22]; rate 250 g ai/ha)
60: Post-emerge Herbicidal Activity ECHCG ([4]; 63 g ai/ha) | Post-emerge Herbicidal Activity DIGSA ([6]; 250 g ai/ha) | Post-emerge Herbicidal Activity CASOB ([7]; 63 g ai/ha) | Pre-emerge Herbicidal Activity RICE ([22]; rate 63 g ai/ha)
